Laboratory results taken from paper PMC7857147 (Biochemistry, 2019).

Legend:
[1] = biological target: PhDph2 (Pyrococcus horikoshii, UniProt O58832, R289A); test: HPLC of SAM cleavage to MTA; format: biochemical; details: 60 uM SAM, 1 mM dithionite, pH 7.4, 65 °C, 10 min, no EF-2, anaerobic
[2] = biological target: the molecule itself; test: crystal structure

Sequence of PhDph2 (O58832 whole entry R289A): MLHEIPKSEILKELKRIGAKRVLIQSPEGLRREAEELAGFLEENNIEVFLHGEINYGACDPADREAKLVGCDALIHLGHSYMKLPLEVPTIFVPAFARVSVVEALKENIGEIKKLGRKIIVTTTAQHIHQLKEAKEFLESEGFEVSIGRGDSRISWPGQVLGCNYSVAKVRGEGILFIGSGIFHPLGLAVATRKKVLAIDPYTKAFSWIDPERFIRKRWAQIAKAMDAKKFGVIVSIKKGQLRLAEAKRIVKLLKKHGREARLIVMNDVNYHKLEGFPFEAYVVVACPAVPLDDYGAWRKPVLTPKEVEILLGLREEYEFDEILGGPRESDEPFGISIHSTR

Molecule | HPLC of SAM cleavage to MTA [1] | stoichiometry N [2]
C[S+](CC[C@H](N)C(=O)O)C[C@H]1O[C@@H](n2cnc3c(N)ncnc32)[C@H](O)[C@@H]1O (some centres unmarked) [SAM] | the R289A mutant still had SAM cleavage activity | –
Methanobrevibacter smithii Dph2 (enzyme, UniProt A5UMY5 1-334, looked up) MSMYNMDLDKVIRKINKKGARTVGLQFPEGLKMQAVKIAKAIESQTPATVIISGDPCFGACDVSDYKMKGSVDLIVHYGHTPLPLKYEVPTLFIEAFSNIDVKKDLEKCLEKLEDYSKIALVTTTQHLHLLNEIKDYLEDNGKEVVLGSSKNTKKGQVLGCNFSSIKNLDAEVYLFIGSGNFHPLGIYLFTKSPVLALDPYNSEIRDISAFADRILRIRFARITKAREAEKWGIIVSSKEGQYRMKLAKEIKKILEDNKMEAYIIMADNINPDILLPYMELDAFVVSACPRIAIDDSQMYKKPLLTPQELEIVLNKRQWENYQLDEILFHERYK | – | 2
